The record followed here is ChEMBL document CHEMBL1201862, “PubChem BioAssay data set” (2004).

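Compound exposure: 48 hours, 5 concentrations, 96-well plates. Abbreviation: GI50, concentration required for 50% inhibition of growth.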 Calls of active or inactive are those of the source. Cut-off read from the data, not from the text of the source: active = GI50 up to about 1.1 µM and inactive = higher.

Some test systems named below: HCT-15; HCC 2998; 786-0; CCRF-CEM; MCF7; MOLT-4; M14; NCI-H460; KM12; NCI/ADR-RES; SNB-75; SNB-19; LOX IMVI; TK-10; SF-539; SF-295; SK-MEL-5; HL-60; HOP-92; Malme-3M.
Assay in all cases: NCI tumour cell line growth inhibition, 48 h

In the case of `COC(=O)C1Cc2c([nH]c3ccccc23)C(c2cccc(O)c2)N1` (stereo not drawn), the GI50 with HCT-15 is 34 µM; in the assay with HCC 2998, 25.6 µM (inactive); in the assay on 786-0 it was 49.1 µM (inactive); in the assay on CCRF-CEM it was 19 µM (inactive); in the assay with MCF7, 27.3 µM (inactive); with MOLT-4, 31.6 µM (inactive). Besides, the GI50 is 21.3 µM (inactive) in the assay on M14; 26.3 µM (inactive) in the assay with NCI-H460; 32.1 µM (inactive) in the assay with KM12; 22.9 µM (inactive) in the assay with NCI/ADR-RES; 23.6 µM (inactive) in the assay with SNB-75; 42.5 µM (inactive) in the assay on SNB-19. Besides, the GI50 in the assay with LOX IMVI was 50.7 µM (inactive); with TK-10, > 100 µM (inactive); with SF-539, 33.4 µM (inactive); in the assay on SF-295, 45.7 µM (inactive); in the assay with SK-MEL-5, 40.9 µM (inactive); with HL-60, 22.2 µM (inactive). For the same compound, in the assay on HOP-92, the GI50 was 28.4 µM (inactive).

With `Nc1ncnc2c1ncn2[C@@H]1O[C@H](COC(c2ccccc2)(c2ccccc2)c2ccccc2)[C@@H](OC(=S)Oc2ccccc2)[C@@H]1F`, the GI50 in the assay with HCT-15 is 3.37 µM; with HCC 2998 it was 14 µM (inactive); in the assay with 786-0, 4.58 µM (inactive); in the assay with CCRF-CEM, 2.5 µM (inactive); with MCF7 it was 3.82 µM (inactive); in the assay on MOLT-4, 2.51 µM (inactive). The GI50 is 5.53 µM (inactive) in the assay on M14; 13.1 µM (inactive) in the assay on NCI-H460; 4.72 µM (inactive) in the assay on KM12; 4.16 µM (inactive) in the assay with NCI/ADR-RES; 14.8 µM (inactive) in the assay on SNB-75; 11.5 µM (inactive) in the assay with SNB-19. In addition, the GI50 was 3.88 µM (inactive) with LOX IMVI; 17.6 µM (inactive) in the assay on TK-10; 8.99 µM (inactive) in the assay on SF-539; 7.98 µM (inactive) in the assay on SF-295; 4.89 µM (inactive) with SK-MEL-5; 3.18 µM (inactive) in the assay with HL-60. Also, the GI50 in the assay on HOP-92 was 8.43 µM (inactive).

As to `N#Cc1c(-c2ccccc2)nc(-c2ccccc2)sc1=S`, the GI50 in the assay on HCT-15 was over 100 µM; in the assay with HCC 2998 it was > 100 µM (inactive); in the assay on 786-0, > 100 µM (inactive); with CCRF-CEM, 49.2 µM (inactive); in the assay with MCF7, > 100 µM (inactive); in the assay with M14, > 100 µM (inactive). For the same compound, the GI50 in the assay on NCI-H460, in the assay on KM12, in the assay on NCI/ADR-RES, in the assay on SNB-75, in the assay on SNB-19 and in the assay with LOX IMVI was > 100 µM (inactive) each time. Further, the GI50 in the assay with TK-10, in the assay with SF-539, in the assay with Malme-3M, with SF-295, in the assay with SK-MEL-5 and in the assay on HL-60 was > 100 µM (inactive) in each case. The GI50 in the assay on HOP-92 was > 100 µM (inactive).

In the case of `CCCCC(=O)c1ccc2ccccc2c1O`, the GI50 in the assay with HCT-15 was over 100 µM; in the assay with HCC 2998, > 100 µM (inactive); in the assay on 786-0, > 100 µM (inactive); in the assay with CCRF-CEM, 42.8 µM (inactive); with MCF7 it was 52.8 µM (inactive); with MOLT-4 it was 84.1 µM (inactive). The GI50 with M14, in the assay on NCI-H460, in the assay on KM12, in the assay with NCI/ADR-RES, with SNB-75 and in the assay with SNB-19 was > 100 µM (inactive) each time. Also, the GI50 was > 100 µM (inactive) with LOX IMVI; > 100 µM (inactive) in the assay with TK-10; > 100 µM (inactive) with SF-539; > 100 µM (inactive) in the assay on SF-295; > 100 µM (inactive) in the assay on SK-MEL-5; 51.3 µM (inactive) in the assay with HL-60. The GI50 with HOP-92 was > 100 µM (inactive).

For the compound `COc1cc(-c2oc3c(OC)c(O)c(OC)c(O)c3c(=O)c2OC)cc(O)c1OC`, the GI50 in the assay with HCT-15 was 35.3 µM; with HCC 2998, 31.3 µM (inactive); in the assay with 786-0, 44.4 µM (inactive); in the assay with CCRF-CEM, 28.9 µM (inactive); with MCF7, 29.6 µM (inactive); in the assay on MOLT-4, 42.9 µM (inactive). Also, the GI50 with M14 is 38.3 µM (inactive); in the assay on KM12, 14.3 µM (inactive); in the assay on NCI/ADR-RES, 17.6 µM (inactive); in the assay on SNB-75 it was 11 µM (inactive); in the assay on SNB-19 it was 65.9 µM (inactive); in the assay on LOX IMVI, 28.4 µM (inactive). For the same compound, the GI50 in the assay on TK-10 was 39.2 µM (inactive); with SF-539, 20.7 µM (inactive); in the assay on Malme-3M, 23.9 µM (inactive); with SF-295 it was 15.8 µM (inactive); in the assay on SK-MEL-5 it was 21.4 µM (inactive); with HL-60, 24.8 µM (inactive). Moreover, the GI50 in the assay with HOP-92 is 39.4 µM (inactive).

Consider `O=C(NC1CCCCC1NC(c1ccccc1)(c1ccccc1)c1ccccc1)C(=O)NC1CCCCC1NC(c1ccccc1)(c1ccccc1)c1ccccc1` (stereo not drawn), for which the GI50 in the assay with HCT-15 was over 100 µM; with HCC 2998 it was > 100 µM (inactive); with 786-0, 53.7 µM (inactive); in the assay on CCRF-CEM, > 100 µM (inactive); in the assay on MCF7, > 100 µM (inactive); with MOLT-4, > 100 µM (inactive). Further, the GI50 with NCI-H460 is > 100 µM (inactive); with KM12, > 100 µM (inactive); in the assay with NCI/ADR-RES, 81.5 µM (inactive); in the assay with SNB-75 it was 1.63 µM (inactive); in the assay with SNB-19 it was > 100 µM (inactive); with LOX IMVI it was > 100 µM (inactive). Further, the GI50 in the assay with TK-10 was > 100 µM (inactive); in the assay with SF-539, 51.2 µM (inactive); in the assay on Malme-3M, > 100 µM (inactive); in the assay with SF-295 it was > 100 µM (inactive); in the assay on SK-MEL-5, > 100 µM (inactive); in the assay with HL-60 it was > 100 µM (inactive). In the assay with HOP-92, the GI50 is 10.5 µM (inactive).

Regarding `Cc1cc(-c2nc3c(O)cccc3s2)ccc1N`, the GI50 with HCT-15 is 25.4 µM; in the assay with HCC 2998 it was 32.8 µM (inactive); in the assay on 786-0, 29.3 µM (inactive); in the assay on CCRF-CEM, 27.3 µM (inactive); in the assay on MCF7 it was 13 µM (inactive); with MOLT-4, 25.4 µM (inactive). In addition, the GI50 is 16.7 µM (inactive) with M14; 30.5 µM (inactive) in the assay on NCI-H460; 23.3 µM (inactive) with KM12; 19.9 µM (inactive) in the assay on NCI/ADR-RES; 83.6 µM (inactive) with SNB-75; 15.3 µM (inactive) with SNB-19. Also, the GI50 with LOX IMVI is 17.3 µM (inactive); in the assay with TK-10, 26.8 µM (inactive); in the assay with SF-539 it was 47.9 µM (inactive); in the assay on SF-295, 25.9 µM (inactive); in the assay on SK-MEL-5, 33.2 µM (inactive); in the assay on HL-60, 19.3 µM (inactive). In addition, the GI50 in the assay on HOP-92 was 18.8 µM (inactive).

In the case of `CCOC(=O)C(CS)NC(=O)CCCCCCCC(=O)O` (stereo not drawn), the GI50 in the assay on HCT-15 is over 100 µM; with HCC 2998, > 100 µM (inactive); in the assay on 786-0 it was > 100 µM (inactive); with CCRF-CEM it was 41.5 µM (inactive); with MCF7, > 100 µM (inactive); in the assay with MOLT-4, > 100 µM (inactive). In addition, the GI50 in the assay on M14 is > 100 µM (inactive); in the assay with NCI-H460 it was > 100 µM (inactive); in the assay on KM12 it was > 100 µM (inactive); with NCI/ADR-RES, > 100 µM (inactive); with SNB-75 it was 0.724 µM (active); with SNB-19 it was > 100 µM (inactive). Also, the GI50 in the assay with LOX IMVI, in the assay with TK-10, with Malme-3M, with SF-295, in the assay with SK-MEL-5 and in the assay with HL-60 was > 100 µM (inactive) each time. Further, the GI50 in the assay with HOP-92 is > 100 µM (inactive).

Consider `Nc1nncc2[nH]cnc12`, for which the GI50 was 44.4 µM with HCT-15; > 100 µM (inactive) with HCC 2998; 48.3 µM (inactive) in the assay on 786-0; 5.09 µM (inactive) with CCRF-CEM; 23.4 µM (inactive) in the assay on MCF7; 10.1 µM (inactive) in the assay with MOLT-4. The GI50 was 35.2 µM (inactive) in the assay on M14; 90.6 µM (inactive) in the assay on NCI-H460; 44.1 µM (inactive) with KM12; 94 µM (inactive) in the assay with NCI/ADR-RES; > 56.9 µM (inactive) with SNB-75; > 100 µM (inactive) in the assay on SNB-19. Besides, the GI50 was 25.5 µM (inactive) in the assay with LOX IMVI; > 50.1 µM (inactive) in the assay with TK-10; 94.4 µM (inactive) in the assay on SF-539; 42.8 µM (inactive) in the assay with SF-295; 24.2 µM (inactive) with SK-MEL-5; 15 µM (inactive) in the assay with HL-60. Moreover, the GI50 in the assay with HOP-92 is > 100 µM (inactive).

For the compound `CCOC(=O)CCC(NC(=O)c1ccc(Nc2nc3ccccc3nc2C(=O)OCC)s1)C(=O)OCC` (stereo not drawn), the GI50 in the assay on HCT-15 is over 100 µM; in the assay with HCC 2998 it was > 100 µM (inactive); with 786-0, 21.7 µM (inactive); in the assay with MCF7 it was > 100 µM (inactive); in the assay on MOLT-4, > 100 µM (inactive); in the assay with M14 it was > 100 µM (inactive). Besides, the GI50 was > 100 µM (inactive) in the assay on NCI-H460; 85.1 µM (inactive) in the assay on KM12; 19.9 µM (inactive) in the assay with NCI/ADR-RES; > 100 µM (inactive) in the assay on SNB-75; 95.1 µM (inactive) with SNB-19; > 100 µM (inactive) with LOX IMVI. Further, the GI50 in the assay on TK-10 was > 100 µM (inactive); in the assay on SF-539, 63.4 µM (inactive); with Malme-3M, > 100 µM (inactive); in the assay on SK-MEL-5 it was > 100 µM (inactive); in the assay on HL-60 it was 36.6 µM (inactive); in the assay with HOP-92, > 100 µM (inactive).

For the compound `Cc1nc2c(O)cccc2c(=O)[nH]1`, the GI50 with HCT-15 is 270 µM; with HCC 2998 it was 418 µM (inactive); in the assay with 786-0 it was > 1000 µM (inactive); with CCRF-CEM, 305 µM (inactive); in the assay with MCF7 it was 621 µM (inactive); in the assay with MOLT-4 it was 339 µM (inactive). For the same compound, the GI50 in the assay on M14 is 611 µM (inactive); in the assay with NCI-H460 it was 263 µM (inactive); in the assay on KM12, 332 µM (inactive); with NCI/ADR-RES, 548 µM (inactive); with SNB-75 it was 233 µM (inactive); with SNB-19, 670 µM (inactive). The GI50 is 485 µM (inactive) in the assay on LOX IMVI; 302 µM (inactive) in the assay on TK-10; 355 µM (inactive) in the assay with SF-539; 597 µM (inactive) in the assay on Malme-3M; 351 µM (inactive) with SF-295; 174 µM (inactive) in the assay with HL-60. The GI50 with HOP-92 was 845 µM (inactive).
